{
  "source": "ChEMBL document CHEMBL4831506",
  "about": "“Discovery of novel trimethoxyphenylbenzo[d]oxazoles as dual tubulin/PDE4 inhibitors capable of inducing apoptosis at G2/M phase arrest in glioma and lung cancer cells” (Eur J Med Chem, 2021)",
  "key": {"U-251 [1]": {"system": "U-251", "assay": "Antiproliferative activity against human U-251 cells after 48 hrs by MTT assay", "format": "functional, cell-based", "settings": "U-251, 48 h"}, "A549 [2]": {"system": "A549", "assay": "Antiproliferative activity against human A549 cells after 48 hrs by MTT assay", "format": "functional, cell-based", "settings": "A549, 48 h"}, "NCI-H460": {"system": "NCI-H460", "assay": "Antiproliferative activity against human NCI-H460 cells after 48 hrs by MTT assay", "format": "functional, cell-based", "settings": "NCI-H460, 48 h"}, "MCF7": {"system": "MCF7", "assay": "Antiproliferative activity against human MCF7 cells after 48 hrs by MTT assay", "format": "functional, cell-based", "settings": "MCF7, 48 h"}, "Sus scrofa [3]": {"species": "Sus scrofa", "assay": "Inhibition of pig brain tubulin polymerization at 1 uM by spectrometric method relative to control", "format": "tissue-based"}, "Sus scrofa [4]": {"species": "Sus scrofa", "assay": "Inhibition of pig brain tubulin polymerization at 10 uM by spectrometric method relative to control", "format": "tissue-based"}, "A549 [5]": {"system": "A549", "assay": "Cell cycle arrest in human A549 cells assessed as G0/G1 phase at 500 nM incubated for 24 hrs by propidium iodide staining based flow cytometry analysis (reference value: 79.14%)", "format": "functional"}, "A549 [6]": {"system": "A549", "assay": "Cell cycle arrest in human A549 cells assessed as G2/M phase at 500 nM measured after 24 hrs by propidium iodide staining based flow cytometry analysis (reference value: 6.08%)", "format": "functional"}, "A549 [7]": {"system": "A549", "assay": "Cell cycle arrest in human A549 cells assessed as G0/G1 phase at 50 nM measured after 24 hrs by propidium iodide staining based flow cytometry analysis (reference value: 79.14%)", "format": "functional"}, "A549 [8]": {"system": "A549", "assay": "Cell cycle arrest in human A549 cells assessed as G2/M phase at 50 nM measured after 24 hrs by propidium iodide staining based flow cytometry analysis (reference value: 6.08%)", "format": "functional"}, "A549 [9]": {"system": "A549", "assay": "Cell cycle arrest in human A549 cells assessed as G2/M phase at 200 nM measured after 24 hrs by propidium iodide staining based flow cytometry analysis (reference value: 6.08%)", "format": "functional"}, "A549 [10]": {"system": "A549", "assay": "Cell cycle arrest in human A549 cells assessed as S phase at 200 nM measured after 24 hrs by propidium iodide staining based flow cytometry analysis (reference value: 14.78%)", "format": "functional"}, "U-251 [11]": {"system": "U-251", "assay": "Cell cycle arrest in human U-251 cells assessed as G0/G1 phase at 200 nM measured after 24 hrs by propidium iodide staining based flow cytometry analysis (reference value: 67.34%)", "format": "functional"}, "U-251 [12]": {"system": "U-251", "assay": "Cell cycle arrest in human U-251 cells assessed as G2/M phase at 200 nM measured after 24 hrs by propidium iodide staining based flow cytometry analysis (reference value: 14.43%)", "format": "functional"}, "U-251 [13]": {"system": "U-251", "assay": "Cell cycle arrest in human U-251 cells assessed as G0/G1 phase at 500 nM measured after 24 hrs by propidium iodide staining based flow cytometry analysis (reference value: 67.34%)", "format": "functional"}, "U-251 [14]": {"system": "U-251", "assay": "Cell cycle arrest in human U-251 cells assessed as S phase at 500 nM measured after 24 hrs by propidium iodide staining based flow cytometry analysis (reference value: 18.23%)", "format": "functional"}, "Tubulin (Homo sapiens)": {"molecular_target": "Tubulin (Homo sapiens) (UniProt P68371+Q9H4B7+P0DPH7+P68366+Q13509+Q71U36+P04350+Q3ZCM7+P07437+P68363+Q9BQE3+Q6PEY2+Q13885+Q9BVA1+Q9BUF5)", "assay": "Inhibition of tubulin assembly in human A549 cells measured after 24 hrs", "format": "cell-based"}, "U-251 [15]": {"system": "U-251", "assay": "Induction of apoptosis in human U-251 cells assessed as increase in apoptotic cells at 500 nM measured after 24 hrs by PI/FITC analysis (reference value: 2.39%)", "format": "functional"}, "A549 [16]": {"system": "A549", "assay": "Induction of apoptosis in human A549 cells assessed as increase in early apoptotic cells at 500 nM measured after 24 hrs by PI/FITC analysis (reference value: 0.955%)", "format": "functional"}, "A549 [17]": {"system": "A549", "assay": "Induction of apoptosis in human A549 cells assessed as increase in late apoptotic cells at 500 nM measured after 24 hrs by PI/FITC analysis (reference value: 0.955%)", "format": "functional"}, "A549 [18]": {"system": "A549", "assay": "Induction of apoptosis in human A549 cells assessed as increase in necrotic cells at 500 nM measured after 24 hrs by PI/FITC analysis (reference value: 0.365%)", "format": "functional"}, "A549 [19]": {"system": "A549", "assay": "Induction of apoptosis in human A549 cells assessed as increase in viable cells at 50 nM measured after 24 hrs by PI/FITC analysis (reference value: 98.4%)", "format": "functional"}, "A549 [20]": {"system": "A549", "assay": "Induction of apoptosis in human A549 cells assessed as increase in early apoptotic cells at 50 nM measured after 24 hrs by PI/FITC analysis (reference value: 0.955%)", "format": "functional"}, "A549 [21]": {"system": "A549", "assay": "Induction of apoptosis in human A549 cells assessed as increase in late apoptotic cells at 50 nM measured after 24 hrs by PI/FITC analysis (reference value: 0.955%)", "format": "functional"}, "A549 [22]": {"system": "A549", "assay": "Induction of apoptosis in human A549 cells assessed as increase in viable cells at 200 nM measured after 24 hrs by PI/FITC analysis (reference value: 98.4%)", "format": "functional"}, "A549 [23]": {"system": "A549", "assay": "Induction of apoptosis in human A549 cells assessed as increase in early apoptotic cells at 200 nM measured after 24 hrs by PI/FITC analysis (reference value: 0.955%)", "format": "functional"}, "A549 [24]": {"system": "A549", "assay": "Induction of apoptosis in human A549 cells assessed as increase in late apoptotic cells at 200 nM measured after 24 hrs by PI/FITC analysis (reference value: 0.955%)", "format": "functional"}, "A549 [25]": {"system": "A549", "assay": "Induction of apoptosis in human A549 cells assessed as increase in necrotic cells at 200 nM measured after 24 hrs by PI/FITC analysis (reference value: 0.365%)", "format": "functional"}, "U-251 [26]": {"system": "U-251", "assay": "Induction of apoptosis in human U-251 cells assessed as increase in late apoptotic cells at 200 nM measured after 24 hrs by PI/FITC analysis (reference value: 0.311%)", "format": "functional"}, "U-251 [27]": {"system": "U-251", "assay": "Induction of apoptosis in human U-251 cells assessed as increase in necrotic cells at 200 nM measured after 24 hrs by PI/FITC analysis (reference value: 0.301%)", "format": "functional"}, "U-251 [28]": {"system": "U-251", "assay": "Induction of apoptosis in human U-251 cells assessed as increase in viable cells at 500 nM measured after 24 hrs by PI/FITC analysis (reference value: 98.3%)", "format": "functional"}, "U-251 [29]": {"system": "U-251", "assay": "Induction of apoptosis in human U-251 cells assessed as increase in early apoptotic cells at 500 nM measured after 24 hrs by PI/FITC analysis (reference value: 1.12%)", "format": "functional"}, "U-251 [30]": {"system": "U-251", "assay": "Induction of apoptosis in human U-251 cells assessed as increase in late apoptotic cells at 500 nM measured after 24 hrs by PI/FITC analysis (reference value: 0.311%)", "format": "functional"}, "U-251 [31]": {"system": "U-251", "assay": "Induction of apoptosis in human U-251 cells assessed as increase in early apoptotic cells at 1000 nM measured after 24 hrs by PI/FITC analysis (reference value: 1.12%)", "format": "functional"}, "U-251 [32]": {"system": "U-251", "assay": "Induction of apoptosis in human U-251 cells assessed as increase in late apoptotic cells at 1000 nM measured after 24 hrs by PI/FITC analysis (reference value: 0.311%)", "format": "functional"}, "U-251 [33]": {"system": "U-251", "assay": "Induction of apoptosis in human U-251 cells assessed as increase in necrotic cells at 1000 nM measured after 24 hrs by PI/FITC analysis (reference value: 0.301%)", "format": "functional"}, "A549 [34]": {"system": "A549", "assay": "Cell cycle arrest in human A549 cells assessed as decrease in cdc25C expression by Western blot analysis", "format": "functional, cell-based", "settings": "dose 50-500 nM"}},
  "note": "The source made the active and inactive calls. The rule behind the calls is not given here.",
  "data": [
    {"smiles": "COc1cc(-c2cccc3nc(-c4ccc5cc[nH]c5c4)oc23)cc(OC)c1OC", "values": [
      {"measurement": "IC50", "setting": "U-251 [1]", "value": 300, "unit": "nM"},
      {"measurement": "IC50", "setting": "A549 [2]", "value": 55, "unit": "nM"},
      {"measurement": "IC50", "setting": "NCI-H460", "value": 24, "unit": "nM"},
      {"measurement": "IC50", "setting": "MCF7", "value": "> 25000", "unit": "nM"},
      {"measurement": "inhibition", "setting": "Sus scrofa [3]", "value": 40, "unit": "%"},
      {"measurement": "inhibition", "setting": "Sus scrofa [4]", "value": 86, "unit": "%"},
      {"measurement": "Activity", "setting": "A549 [5]", "value": 3.89, "unit": "%"},
      {"measurement": "Activity", "setting": "A549 [6]", "value": 68.09, "unit": "%"},
      {"measurement": "Activity", "setting": "A549 [7]", "value": 55.78, "unit": "%"},
      {"measurement": "Activity", "setting": "A549 [8]", "value": 19.43, "unit": "%"},
      {"measurement": "Activity", "setting": "A549 [9]", "value": 61.33, "unit": "%"},
      {"measurement": "Activity", "setting": "A549 [10]", "value": 23.43, "unit": "%"},
      {"measurement": "Activity", "setting": "U-251 [11]", "value": 43.71, "unit": "%"},
      {"measurement": "Activity", "setting": "U-251 [12]", "value": 37.97, "unit": "%"},
      {"measurement": "Activity", "setting": "U-251 [13]", "value": 34.64, "unit": "%"},
      {"measurement": "Activity", "setting": "U-251 [14]", "value": 22.47, "unit": "%"},
      {"measurement": "inhibition", "setting": "Tubulin (Homo sapiens)", "value": "Active"},
      {"measurement": "Activity", "setting": "U-251 [15]", "value": 20.98, "unit": "%"},
      {"measurement": "Activity", "setting": "A549 [16]", "value": 11.1, "unit": "%"},
      {"measurement": "Activity", "setting": "A549 [17]", "value": 15.4, "unit": "%"},
      {"measurement": "Activity", "setting": "A549 [18]", "value": 2.84, "unit": "%"},
      {"measurement": "Activity", "setting": "A549 [19]", "value": 86.9, "unit": "%"},
      {"measurement": "Activity", "setting": "A549 [20]", "value": 5.32, "unit": "%"},
      {"measurement": "Activity", "setting": "A549 [21]", "value": 7.23, "unit": "%"},
      {"measurement": "Activity", "setting": "A549 [22]", "value": 79.8, "unit": "%"},
      {"measurement": "Activity", "setting": "A549 [23]", "value": 9.7, "unit": "%"},
      {"measurement": "Activity", "setting": "A549 [24]", "value": 0.85, "unit": "%"},
      {"measurement": "Activity", "setting": "A549 [25]", "value": 1.61, "unit": "%"},
      {"measurement": "Activity", "setting": "U-251 [26]", "value": 6.95, "unit": "%"},
      {"measurement": "Activity", "setting": "U-251 [27]", "value": 2.01, "unit": "%"},
      {"measurement": "Activity", "setting": "U-251 [28]", "value": 83.1, "unit": "%"},
      {"measurement": "Activity", "setting": "U-251 [29]", "value": 4.61, "unit": "%"},
      {"measurement": "Activity", "setting": "U-251 [30]", "value": 9.13, "unit": "%"},
      {"measurement": "Activity", "setting": "U-251 [31]", "value": 5.18, "unit": "%"},
      {"measurement": "Activity", "setting": "U-251 [32]", "value": 15.8, "unit": "%"},
      {"measurement": "Activity", "setting": "U-251 [33]", "value": 1.66, "unit": "%"},
      {"measurement": "Activity", "setting": "A549 [34]", "value": "Dose-Dependent Effect"}
    ]}
  ]
}
